Experiments:
Type in all cases: in vivo
[1] = tested on: male Sgsh transgenic mice (MPS); experiment: Open-field anxiety test in MPS mice (Sanfilippo A model); settings: daily I.P. 21 days, nilotinib 10 mg/kg, bosutinib 5 mg/kg, 5 minute trial, FIG. 2C
Experimental: Open-field Anxiety: Mice were placed in the open field arena for 5 minutes. Animals were tracked by photocell beams along the arena floor. Data were collected and analyzed for the number of entries into the center zone of the arena, the total distance (cm) traveled within the center zone, the amount of time (sec) spent in the center zone, the total distance traveled (cm) in the peripheral wall zone of the arena, the amount of time spent (sec) in the wall zone, the total distance traveled (cm) during the 5 minute trial, the total time spent moving ‘total ambulatory time’ (sec) during the 5 minute trial, and the average velocity (cm/sec) during the 5 minute trial.

[2] = tested on: male Sgsh transgenic mice (MPS); experiment: Open-field locomotion test in MPS mice (Sanfilippo A model); settings: daily I.P. 21 days, nilotinib 10 mg/kg, bosutinib 5 mg/kg, FIG. 2C
Experimental: (§1) Twelve 8-9 month old, male Sgsh transgenic mice (MPS) were used for all experiments and were compared to fourteen non-transgenic age-matched, littermates (non-TG). […] Treatment lasted for 21 days. At the end of the treatment period the mice underwent behavioral testing again and Western blot analysis was performed.
Open-field Locomotion: Mice were placed in the open field arena for 60 minutes. Animals were tracked by photocell beams along the arena floor. Data were collected and analyzed for total locomotion via total cm travelled. Other data collected were the total time spent moving ‘total ambulatory time’ (sec) during the 60 minute trial and the average velocity (cm/sec) during the 60 minute trial.
(§2) Post-treatment rotarod MPS versus non-TG littermate mice: After the behavioral tests were conducted the symptomatic MPS mice were divided into three groups (n=4). […] There were three control groups made of age matched non-TG littermate controls (n=4, 5) which were treated in the same way. Behavioral tests were repeated and data collected is referred to as “post-treatment.” Since there was no significant difference between the control non-TG treatment groups, they were combined into one non-TG control group.

[3] = tested on: male Sgsh transgenic mice (MPS); experiment: Post-treatment rotarod test in MPS mice (Sanfilippo A model); settings: daily I.P. 21 days, nilotinib 10 mg/kg, bosutinib 5 mg/kg, vs DMSO and non-TG controls, FIG. 3
Experimental: as §1
Rotarod: Mice were placed on the rotarod apparatus which sped up to 50 rpm, over the course of 5 minutes for 3-5 trials, with a minimum of 30 minutes rest between trials. Data collected were the time the animal remained ambulatory on the rotating rod, in seconds, labelled “latency to fall.” Data is also presented as “percentage difference” where all groups are normalized to the non-transgenic, untreated group, assuming non-transgenic, untreated animals are preforming at 100%.
as §2

Cc1cn(-c2cc(NC(=O)c3ccc(C)c(Nc4nccc(-c5cccnc5)n4)c3)cc(C(F)(F)F)c2)cn1 [nilotinib]
anxiety (entries into center zone), open field [1]: reduced anxiety (more entries into center zone, p<0.05)
overall locomotion activity, open field [2]: increased the overall locomotion (p<0.05) activity
rotarod performance (latency to fall), post-treatment [3]: perform better than the MPS mice treated with DMSO or bosutinib, and look more like the non-TG controls
